pIC50: −log10 of the molar value. Where a name gives a salt, the structure may show the parent alone.

T1 sequence (P08546 whole entry): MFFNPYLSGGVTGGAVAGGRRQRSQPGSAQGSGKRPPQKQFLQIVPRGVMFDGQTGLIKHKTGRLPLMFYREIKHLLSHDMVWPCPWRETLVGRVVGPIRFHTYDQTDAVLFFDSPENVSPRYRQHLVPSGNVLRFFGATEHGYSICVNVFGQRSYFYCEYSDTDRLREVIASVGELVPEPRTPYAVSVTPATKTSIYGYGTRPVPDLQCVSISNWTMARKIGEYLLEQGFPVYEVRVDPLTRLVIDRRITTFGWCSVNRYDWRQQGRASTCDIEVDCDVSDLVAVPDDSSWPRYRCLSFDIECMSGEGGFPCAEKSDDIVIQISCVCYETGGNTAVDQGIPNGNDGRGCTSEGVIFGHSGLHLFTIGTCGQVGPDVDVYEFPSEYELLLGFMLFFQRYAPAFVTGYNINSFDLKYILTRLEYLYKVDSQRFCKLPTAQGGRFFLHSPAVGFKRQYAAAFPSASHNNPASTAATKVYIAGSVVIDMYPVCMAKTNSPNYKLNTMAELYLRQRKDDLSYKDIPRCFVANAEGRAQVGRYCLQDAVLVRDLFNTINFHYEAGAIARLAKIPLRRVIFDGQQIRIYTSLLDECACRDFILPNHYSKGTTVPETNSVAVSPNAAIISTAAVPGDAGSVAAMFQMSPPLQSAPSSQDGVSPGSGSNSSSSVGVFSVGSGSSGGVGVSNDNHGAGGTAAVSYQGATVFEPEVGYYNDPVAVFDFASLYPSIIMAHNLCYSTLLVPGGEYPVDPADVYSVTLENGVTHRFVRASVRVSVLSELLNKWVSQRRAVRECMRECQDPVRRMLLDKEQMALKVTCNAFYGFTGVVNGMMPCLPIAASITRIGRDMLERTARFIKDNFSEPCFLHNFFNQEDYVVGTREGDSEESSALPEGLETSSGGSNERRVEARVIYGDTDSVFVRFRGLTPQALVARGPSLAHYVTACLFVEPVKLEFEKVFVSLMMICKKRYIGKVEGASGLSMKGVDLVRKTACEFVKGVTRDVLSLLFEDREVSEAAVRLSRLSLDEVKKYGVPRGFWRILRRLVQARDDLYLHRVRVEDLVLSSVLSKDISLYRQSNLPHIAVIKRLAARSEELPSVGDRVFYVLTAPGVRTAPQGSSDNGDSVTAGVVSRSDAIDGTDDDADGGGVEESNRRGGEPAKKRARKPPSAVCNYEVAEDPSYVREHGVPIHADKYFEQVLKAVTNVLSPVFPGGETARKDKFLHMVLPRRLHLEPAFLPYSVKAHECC

The test has as its target T1, HCMV polymerase (Human cytomegalovirus, UniProt P08546).
T1 construct: made in house; host or cells: recombinant baculovirus-infected SF-9 insect cells
As to the kind of experiment: biochemical. Conditions: HCMV polymerase; SPA; modified assay: compounds in 100% DMSO, 4.5 mM DTT. Here is the method:
The HCMV polymerase assay is performed using a scintillation proximity assay (SPA) as described in several references, such as N. D. Cook, et al., Pharmaceutical Manufacturing International, pages 49-53 (1992); K. Takeuchi, Laboratory Practice, September issue (1992); U.S. Pat. No. 4,568,649 (1986); which are incorporated by reference herein. Reactions are performed in 96-well plates. The assay is conducted in 100 μl volume with 5.4 mM HEPES (pH 7.5), 11.7 mM KCl, 4.5 mM MgCl2, 0.36 mg/ml BSA, and 90 nM ^3 H-dTTP. Assays are run with and without CHAPS, (3-[(3-Cholamidopropyl)dimethylammonio]-1-propane-sulfonate) at a final concentration of 2 mM. HCMV polymerase is diluted in enzyme dilution buffer containing 50% glycerol, 250 mM NaCl, 10 mM HEPES (pH 7.5), 100 μg/ml BSA, and 0.01% sodium azide. The HCMV polymerase, which is expressed in recombinant baculovirus-infected SF-9 cells and purified according to literature procedures, is added at 10% (or 10 μl) of the final reaction volume, i.e., 100 μl. Compounds are diluted in 50% DMSO and 10 μl are added to each well. Control wells contain an equivalent concentration of DMSO. Unless noted otherwise, reactions are initiated via the addition of 6 nM biotinylated poly(dA)-oligo(dT) template/primer to reaction mixtures containing the enzyme, substrate, and compounds of interest. Plates are incubated in a 25 C. or 37 C. H2 O bath and terminated via the addition of 40 μl/reaction of 0.5 M EDTA (pH 8) per well. Reactions are terminated within the time-frame during which substrate incorporation is linear and varied depending upon the enzyme and conditions used, i.e., 30 min. for HCMV polymerase. Ten μl of streptavidin-SPA beads (20 mg/ml in PBS/10% glycerol) are added following termination of the reaction. Plates are incubated 10 min. at 37 C., then equilibrated to room temperature, and counted on a Packard Topcount. Linear regressions are performed and IC50 's are calculated using computer software.
A modified version of the above HCMV polymerase assay is performed as described above, but with the following changes: Compounds are diluted in 100% DMSO until final dilution into assay buffer. In the previous assay, compounds are diluted in 50% DMSO. 4.5 mM dithiotherotol (DTT) is added to the polymerase buffer.
In the case of `Cn1cc(C(=O)NCc2ccc(Cl)cc2)c(=O)c2cc(CN(CCO)Cc3ccccc3)ccc21` [Example 50, 6-((Benzyl(2-hydroxyethyl)amino)methyl)-N-(4-chlorobenzyl)-1-methyl-4-oxo-1,4-dihydro-3-quinolinecarboxamide], the pIC50 was 4.94.

As to `Cn1cc(C(=O)NCc2ccc(Cl)cc2)c(=O)c2cc(CC3CCOCC3)ccc21` [Example 98, N-(4-Chlorobenzyl)-1-methyl-4-oxo-6-(tetrahydro-2H-pyran-4-ylmethyl)-1,4-dihydro-3-quinolinecarboxamide], the pIC50 was 6.51. Against the preceding compound, the pIC50 is 1.57 log units higher.

Take `Cn1cc(C(=S)NCc2ccc(Cl)cc2)c(=O)c2cc(CN3CCOCC3)ccc21` [Example 95, N-(4-Chlorobenzyl)-1-methyl-6-(4-morpholinylmethyl)-4-oxo-1,4-dihydro-3-quinolinecarbothioamide]: the pIC50 was 6.52.

With `CN(CCS(=O)(=O)O)C(=O)CCCCCCC(=O)OCC#Cc1ccc2c(c1)c(=O)c(C(=O)NCc1ccc(Cl)cc1)cn2C` [Example 37, Sodium 2-[(8-{[3-(3-{[(^4-chlorobenzyl)amino]carbonyl}-1-methyl-4-oxo-1,4-dihydro-6-quinolinyl)-2-propynyl]oxy}-8-oxooctanoyl)(methyl)amino]-1-ethanesulfonate], the pIC50 was < 4.70.

In turn, `COCCOCCn1cc(C(=O)NCc2ccc(Cl)cc2)c(=O)c2cc(CN3CC[C@@H](O)C3)ccc21` [Example 87, N-(4-Chlorobenzyl)-6-{[(3R)-3-hydroxypyrrolidinyl]methyl}-1-[2-(2-methoxyethoxy)ethyl]-4-oxo-1,4-dihydro-3-quinolinecarboxamide] showed a pIC50 of 5.40.

`O=C(NCc1ccc(Cl)cc1)c1cn(C2CCOCC2)c2ccc(CN3CCOCC3)cc2c1=O` [Example 108, N-(4-Chlorobenzyl)-6-(4-morpholinylmethyl)-4-oxo-1-tetrahydro-2H-pyran-4-yl-1,4-dihydro-3-quinolinecarboxamide] gave a pIC50 of 6.09.

For the compound `Cn1cc(C(=O)NCc2ccc(Cl)cc2)c(=O)c2cc(CCCOP(=O)(OC(C)(C)C)OC(C)(C)C)ccc21` [Example 32, Di(tert-butyl) 3-(3-{[(4-chlorobenzyl)amino]carbonyl}-1-methyl-4-oxo-1,4-dihydro-6-quinolinyl)propyl phosphate], the pIC50 was 4.57.

As for `CN1CCN(n2cc(C(=O)NCc3ccc(Cl)cc3)c(=O)c3cc(CN4CCOCC4)ccc32)CC1` [Example 113, N-(4Chlorobenzyl)-1-(4methyl-1-piperazinyl)-6-(4-morpholinylmethyl)-4-oxo-1,4-dihydro-3-quinolinecarboxamide], the pIC50 is 6.19.

On to `O=C(NCc1ccc(Cl)cc1)c1cn(C2CCS(=O)(=O)CC2)c2ccc(CN3CCOCC3)cc2c1=O` [Example 111, N-(4-Chlorobenzyl)-1-(1,1-dioxohexahydro-thiopyran-4-yl)-6-(4-morpholinylmethyl)-4-oxo-1,4-dihydro-3-quinolinecarboxamide], for which the pIC50 was 6.14.

Compound `O=C(NCc1ccc(Cl)cc1)c1cn(CCO)c2ccc(C#CCO)cc2c1=O` [Example 30, N-(4-Chlorobenzyl)-1-(2-hydroxyethyl)-6-(3-hydroxy-1-propynyl)-4-oxo-1,4-dihydro-3-quinolinecarboxamide] gave a pIC50 of 6.02. This pIC50 and that of the compound before are within 0.2 log units of each other.

Turning to `O=C(NCc1ccc(Cl)cc1)c1cn(C2CC2)c2ccc(CN3CCOCC3)cc2c1=O` [Example 27, N-(4-Chlorobenzyl)-1-cyclopropyl-6-(4-morpholinylmethyl)-4-oxo-1,4-dihydro-3-quinolinecarboxamide], the pIC50 was 6.21.

For the compound `Cn1cc(C(=O)NCc2ccc(Cl)cc2)c(=O)c2cc(CCCOP(=O)(O)O)ccc21` [Example 33, 3-(3-{[(4-Chlorobenzyl)amino]carbonyl}-1-methyl-4-oxo-1,4-dihydro-6-quinolinyl)propyl dihydrogen phosphate], the pIC50 is 5.43.

In turn, `C=CCOn1cc(C(=O)NCc2ccc(Cl)cc2)c(=O)c2ccccc21` [Example 122, 1-(Allyloxy)-N-(4-chlorobenzyl)-4-oxo-1,4-dihydro-3-quinolinecarboxamide] gave a pIC50 of 5.55. The pIC50 values of the last two compounds are within 0.2 log units of each other.

For the compound `O=C(NCc1ccc(Cl)cc1)c1cn(CCC[S+]([O-])CCCO)c2ccc(CN3CCOCC3)cc2c1=O` (stereo not shown) [Example 70], the pIC50 is 6.06.

On to `C=Cc1ccc2c(c1)c(=O)c(C(=O)NCc1ccc(Cl)cc1)cn2C` [Example 54, N-(4-Chlorobenzyl)-1-methyl-4-oxo-6-vinyl-1,4-dihydro-3-quinolinecarboxamide], for which the pIC50 was 5.48.

`CS(=O)(=O)Cn1cc(C(=O)NCc2ccc(Cl)cc2)c(=O)c2cc(CN3CCOCC3)ccc21` [Example 80, N-(4-Chlorobenzyl)-1-[(methylsulfonyl)methyl]-6-(4-morpholinylmethyl)-4-oxo-1,4-dihydro-3-quinolinecarboxamide]: the pIC50 is 5.96.

The compound `Cn1cc(C(=O)NCc2ccc(Cl)cc2)c(=O)c2cc(CN(CCO)CCO)ccc21` [Example 44, 6-((Bis(2-hydroxyethyl)amino)methyl)-N-(4-chlorobenzyl)-1-1-methyl-4-oxo-1,4-dihydro-3-quinolinecarboxamide.] had a pIC50 of 5.03.

On to `CN(C)n1cc(C(=O)NCc2ccc(Cl)cc2)c(=O)c2cc(C#CCO)ccc21` [Example 120, N-(4-Chlorobenzyl)-1-(dimethylamino)-6-(3-hydroxy-1-propynyl)-4-oxo-1,4-dihydro-3-quinolinecarboxamide], for which the pIC50 is 5.60.

Compound `O=C(NCc1ccc(Cl)cc1)c1cn(CCOCCO)c2ccc(CN3CCOCC3)cc2c1=O` [Example 57, N-(4-Chlorobenzyl)-1-[2-(2-hydroxyethoxy)ethyl]-6-(4-morpholinylmethyl)-4-oxo-1,4-dihydro-3-quinolinecarboxamide] gave a pIC50 of 5.92.

The compound `CC(C)n1cc(C(=O)NCc2ccc(Cl)cc2)c(=O)c2cc(C#CCO)ccc21` [Example 1, N-(4-Chlorobenzyl)-6-(3-hydroxy-1-propynyl)-1-isopropyl-4-oxo-1,4-dihydro-3-quinolinecarboxamide] gave a pIC50 of 5.77.

The compound `COCCOCCOCCn1cc(C(=O)NCc2ccc(Cl)cc2)c(=O)c2cc(CN3CCOCC3)ccc21` [Example 56, N-(4-Chlorobenzyl)-1-{2-[2-(2-methoxyethoxy)ethoxy]ethyl}-6-(4-morpholinylmethyl)-4-oxo-1,4-dihydro-3-quinolinecarboxamide] showed a pIC50 of 5.52.

As to `CCOCCOCCn1cc(C(=O)NCc2ccc(Cl)cc2)c(=O)c2cc(CN3CCOCC3)ccc21` [Example 58, N-(4-Chlorobenzyl)-1-[2-(2-ethoxyethoxy)ethyl]-6-(4-morpholinylmethyl)-4-oxo-1,4-dihydro-3-quinolinecarboxamide], the pIC50 was 5.85.

Compound `COCCOCCn1cc(C(=O)NCc2ccc(Cl)cc2)c(=O)c2cc(CN(C)[C@H](C)[C@@H](O)c3ccccc3)ccc21` [Example 88, N-(4-Chlorobenzyl)-6-{[[(1R,2S)-2-hydroxy-1-methyl-2-phenylethyl](methyl)amino]methyl}-1-[2-(2-methoxyethoxy)ethyl]-4-oxo-1,4-dihydro-3-quinolinecarboxamide] showed a pIC50 of 5.23.

Take `CCC(C)n1cc(C(=O)NCc2ccc(Cl)cc2)c(=O)c2cc(C#CCO)cc(OC)c21` (stereo not shown) [Example 3, 1-(sec-butyl)-N-(4-chlorobenzyl)-6-(3-hydroxy-1-propynyl)-8-methoxy-4-oxo-1,4-dihydro-3-quinolinecarboxamide]: the pIC50 was 5.64. Compared with the last compound, the pIC50 is 0.41 log units higher.

On to `O=C(NCc1ccc(Cl)cc1)c1cn(C[S+]([O-])c2ccccc2)c2ccc(CN3CCOCC3)cc2c1=O` (stereo not shown) [Example 81, N-(4-Chlorobenzyl)-6-(4-morpholinylmethyl)-4-oxo-1-[(phenylsulfinyl)methyl]-1,4-dihydro-3-quinolinecarboxamide], for which the pIC50 is 6.46.

For `CN(C)CCn1cc(C(=O)NCc2ccc(Cl)cc2)c(=O)c2cc(C#CCO)ccc21` [Example 13, N-(4-Chlorobenzyl)-1-[2-(dimethylamino)ethyl]-6-(3-hydroxy-1-propynyl)-4-oxo-1,4-dihydro-3-quinolinecarboxamide, hydrochloride salt], the pIC50 is 5.54.

The compound `O=C(NCc1ccc(Cl)cc1)c1cn(COCCO)c2ccc(CN3CCOCC3)cc2c1=O` [Example 107] had a negative-log IC50 (pIC50) of 6.08.

In the case of `CC(C)(C)OP(=O)(OCCCc1ccc2c(c1)c(=O)c(C(=O)NCc1ccc(Cl)cc1)cn2C1CC1)OC(C)(C)C` [Example 34, Di(tert-butyl) 3-(3-{[(4-chlorobenzyl)amino]carbonyl}-1-cyclopropyl-4-oxo-1,4-dihydro-6-quinolinyl)propyl phosphate], the pIC50 was < 4.70.

(Values after patent US6248739A, “Quinolinecarboxamides as antiviral agents” (Pharmacia & Upjohn Company, priority 1999, dated 2001).)
